Target: Prothrombin (Homo sapiens, UniProt P00734)
Experiment: Inhibitory activity against human thrombin by amidolytic assay using chromogenic S-2238 substrate
Assay type: functional

Ki	Compound
66 nM	CC[C@H](C)C[C@H](NC(=O)[C@H](CC(C)C)NC(=O)[C@H](CCCCN)NC(=O)[C@H](CCC(N)=O)NC(=O)[C@H](CCC(=O)O)NC(=O)CNC(=O)[C@H]1CCCCN1C(=O)[C@H](CCCN=C(N)N)NS(=O)(=O)c1ccc(C(C)(C)C)cc1)C(=O)N[C@@H](CO)C(=O)N[C@@H](CCC(=O)O)C(=O)N[C@@H](CCC(=O)O)C(=O)N[C@@H](CC(=O)O)C(=O)N[C@@H](CC(C)C)C(=O)NCC(=O)N[C@@H](CC(=O)O)C(=O)N[C@@H](Cc1ccccc1)C(=O)N[C@@H](CCC(=O)O)C(=O)N[C@@H](CCC(=O)O)C(=O)N[C@H](C(=O)N1CCC[C@H]1C(=O)N[C@@H](CCC(=O)O)C(=O)N[C@@H](CCC(=O)O)C(=O)N[C@@H](Cc1ccc(O)cc1)C(=O)N[C@@H](CC(C)C)C(=O)N[C@@H](CCC(N)=O)C(=O)O)[C@@H](C)CC
36 nM	CC[C@H](C)[C@H](NC(=O)[C@H](CCC(=O)O)NC(=O)[C@H](CCC(=O)O)NC(=O)[C@H](Cc1ccccc1)NC(=O)[C@H](CC(=O)O)NC(=O)CNC(=O)[C@H](CO)NC(=O)CNC(=O)[C@H](CO)NC(=O)CNC(=O)[C@H]1CCCCN1C(=O)[C@H](CCCN=C(N)N)NS(=O)(=O)c1ccc(C(C)(C)C)cc1)C(=O)N1CCC[C@H]1C(=O)N[C@@H](CCC(=O)O)C(=O)N[C@@H](CCC(=O)O)C(=O)N[C@@H](Cc1ccc(O)cc1)C(=O)N[C@@H](CC(C)C)C(=O)N[C@@H](CCC(N)=O)C(=O)O

— ChEMBL document CHEMBL1141203, “Transforming bivalent ligands into retractable enzyme inhibitors through polypeptide-protein interactions” (Bioorg Med Chem Lett, 2005)
